The NIST ThermoML archive (doi:10.1021/je800110r)
± gives the expanded uncertainty stated by the source.

Conditions: 323.14 K, Liquid, Vibrating tube method

Measured: mass density

CCCCCCCCCC [decane]
723.8 ± 2 kg/m3: 19912 kPa | 20009 kPa | 20031 kPa | 20080 kPa | 20304 kPa
720.5 ± 2 kg/m3: 15765 kPa | 15776 kPa | 15787 kPa | 15805 kPa | 15866 kPa | 15877 kPa | 15890 kPa | 15915 kPa
722.2 ± 2 kg/m3: 17860 kPa | 17942 kPa | 17955 kPa | 17972 kPa | 18038 kPa | 18087 kPa | 18109 kPa | 18155 kPa
724 ± 2 kg/m3: 20210 kPa | 20257 kPa | 20286 kPa | 20323 kPa | 20345 kPa | 20363 kPa | 20462 kPa
719.3 ± 2 kg/m3: 14191 kPa | 14209 kPa | 14258 kPa | 14293 kPa | 14335 kPa
721.8 ± 2 kg/m3: 17323 kPa | 17337 kPa | 17473 kPa | 17510 kPa
720.9 ± 2 kg/m3: 16100 kPa | 16192 kPa | 16223 kPa | 16235 kPa | 16249 kPa | 16281 kPa | 16305 kPa | 16323 kPa
723.5 ± 2 kg/m3: 19594 kPa | 19672 kPa | 19741 kPa
722.4 ± 2 kg/m3: 18192 kPa | 18209 kPa | 18232 kPa | 18247 kPa | 18269 kPa | 18292 kPa | 18310 kPa | 18335 kPa
723.7 ± 2 kg/m3: 19867 kPa | 19891 kPa | 19936 kPa | 19957 kPa | 20049 kPa
719.5 ± 2 kg/m3: 14487 kPa | 14504 kPa | 14521 kPa | 14541 kPa | 14562 kPa | 14576 kPa | 14589 kPa | 14598 kPa
722 ± 2 kg/m3: 17612 kPa | 17659 kPa | 17677 kPa | 17694 kPa | 17731 kPa | 17751 kPa | 17772 kPa
723.4 ± 2 kg/m3: 19390 kPa | 19461 kPa | 19485 kPa | 19509 kPa | 19574 kPa | 19637 kPa
719.6 ± 2 kg/m3: 14609 kPa | 14666 kPa | 14778 kPa | 14789 kPa | 14800 kPa
721.5 ± 2 kg/m3: 17025 kPa
721.7 ± 2 kg/m3: 17272 kPa | 17350 kPa | 17369 kPa | 17387 kPa | 17405 kPa | 17419 kPa | 17442 kPa
719.4 ± 2 kg/m3: 14225 kPa | 14443 kPa | 14465 kPa
723.6 ± 2 kg/m3: 19655 kPa | 19720 kPa | 19760 kPa | 19777 kPa | 19795 kPa | 19813 kPa | 19840 kPa
720.6 ± 2 kg/m3: 15754 kPa | 15818 kPa | 15829 kPa | 15844 kPa | 15853 kPa | 15904 kPa | 15926 kPa | 15940 kPa | 15955 kPa | 15970 kPa | 16012 kPa | 16056 kPa
724.8 ± 2 kg/m3: 21366 kPa
718.8 ± 2 kg/m3: 13785 kPa
720.7 ± 2 kg/m3: 15982 kPa | 16000 kPa | 16029 kPa | 16067 kPa | 16110 kPa | 16124 kPa | 16148 kPa | 16160 kPa
723.1 ± 2 kg/m3: 19005 kPa | 19062 kPa
722.6 ± 2 kg/m3: 18423 kPa | 18464 kPa | 18500 kPa | 18583 kPa | 18616 kPa
721.9 ± 2 kg/m3: 17455 kPa | 17491 kPa | 17532 kPa | 17546 kPa | 17561 kPa | 17579 kPa | 17593 kPa | 17645 kPa | 17715 kPa
722.5 ± 2 kg/m3: 18351 kPa | 18374 kPa | 18390 kPa | 18405 kPa | 18443 kPa
721.2 ± 2 kg/m3: 16658 kPa
721.4 ± 2 kg/m3: 17010 kPa
722.3 ± 2 kg/m3: 17901 kPa | 17992 kPa | 18009 kPa | 18023 kPa | 18072 kPa | 18131 kPa | 18169 kPa
722.9 ± 2 kg/m3: 18816 kPa | 18846 kPa | 18905 kPa | 18921 kPa | 18940 kPa | 18983 kPa
719.8 ± 2 kg/m3: 14864 kPa | 14876 kPa | 14913 kPa | 14941 kPa | 14955 kPa | 14964 kPa | 15000 kPa
721 ± 2 kg/m3: 16497 kPa | 16526 kPa | 16583 kPa
723.2 ± 2 kg/m3: 19263 kPa | 19308 kPa
722.1 ± 2 kg/m3: 17788 kPa | 17805 kPa | 17824 kPa | 17838 kPa | 17879 kPa | 17922 kPa | 18057 kPa
722.8 ± 2 kg/m3: 18795 kPa
724.2 ± 2 kg/m3: 20431 kPa | 20482 kPa | 20520 kPa | 20562 kPa | 20607 kPa
720.4 ± 2 kg/m3: 15542 kPa | 15581 kPa | 15624 kPa | 15655 kPa | 15673 kPa | 15738 kPa
723.3 ± 2 kg/m3: 19354 kPa | 19373 kPa | 19410 kPa | 19436 kPa
720.2 ± 2 kg/m3: 15350 kPa | 15378 kPa | 15447 kPa | 15460 kPa | 15517 kPa | 15556 kPa
722.7 ± 2 kg/m3: 18487 kPa | 18518 kPa | 18543 kPa | 18564 kPa | 18598 kPa | 18637 kPa | 18660 kPa | 18684 kPa | 18703 kPa | 18735 kPa | 18758 kPa
719.2 ± 2 kg/m3: 14243 kPa
724.1 ± 2 kg/m3: 20389 kPa | 20504 kPa | 20630 kPa
719.9 ± 2 kg/m3: 14923 kPa | 14931 kPa | 14976 kPa | 14990 kPa
718.9 ± 2 kg/m3: 13804 kPa | 13828 kPa
719.7 ± 2 kg/m3: 14766 kPa | 14810 kPa | 14824 kPa | 14837 kPa | 14850 kPa | 14889 kPa | 14900 kPa
724.6 ± 2 kg/m3: 21120 kPa | 21192 kPa
723.9 ± 2 kg/m3: 20105 kPa | 20127 kPa | 20154 kPa | 20176 kPa | 20191 kPa | 20235 kPa
720.1 ± 2 kg/m3: 15364 kPa | 15435 kPa
723 ± 2 kg/m3: 18959 kPa | 19027 kPa | 19043 kPa
724.7 ± 2 kg/m3: 21168 kPa | 21219 kPa
724.3 ± 2 kg/m3: 20584 kPa
724.5 ± 2 kg/m3: 21147 kPa
724.4 ± 2 kg/m3: 20675 kPa
720.8 ± 2 kg/m3: 16041 kPa | 16079 kPa | 16091 kPa | 16136 kPa | 16175 kPa | 16206 kPa | 16265 kPa
721.6 ± 2 kg/m3: 17288 kPa | 17305 kPa
721.1 ± 2 kg/m3: 16485 kPa | 16509 kPa | 16540 kPa | 16554 kPa | 16570 kPa | 16614 kPa
720.3 ± 2 kg/m3: 15476 kPa | 15490 kPa | 15507 kPa | 15527 kPa | 15567 kPa | 15594 kPa | 15610 kPa | 15639 kPa
